Measured values taken from patent publication US11767310B2, “Nicotinamide RIPK1 inhibitors” (AbbVie Inc., priority 2021, dated 2023).
Read-outs that look alike come from different tables or passages of the source.

Assays:
Experiment in all cases: Kinase binding screen
[1] = biological target: NEK2 (Homo sapiens (Human), UniProt P51955); conditions: read-out: Percent Control at 100 nM Compound Concentration
[2] = biological target: FGR (Homo sapiens (Human), UniProt P09769); conditions: read-out: Percent Control at 100 nM Compound Concentration
Chain of FGR (P09769 whole entry): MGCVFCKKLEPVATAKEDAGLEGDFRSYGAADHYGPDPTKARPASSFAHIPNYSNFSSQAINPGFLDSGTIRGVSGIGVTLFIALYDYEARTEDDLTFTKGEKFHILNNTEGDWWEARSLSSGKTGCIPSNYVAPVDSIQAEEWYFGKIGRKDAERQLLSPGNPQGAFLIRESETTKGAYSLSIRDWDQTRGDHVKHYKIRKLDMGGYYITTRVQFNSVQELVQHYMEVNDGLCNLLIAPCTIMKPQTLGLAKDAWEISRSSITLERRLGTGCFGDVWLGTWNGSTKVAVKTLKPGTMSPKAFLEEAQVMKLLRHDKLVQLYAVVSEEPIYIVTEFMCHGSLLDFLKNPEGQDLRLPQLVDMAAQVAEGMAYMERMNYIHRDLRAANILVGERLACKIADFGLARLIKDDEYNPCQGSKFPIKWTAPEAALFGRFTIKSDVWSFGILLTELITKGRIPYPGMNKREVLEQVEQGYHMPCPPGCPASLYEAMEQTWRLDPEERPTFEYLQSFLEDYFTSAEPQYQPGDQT

[3] = biological target: PIK3CA(M10431) (Homo sapiens (Human), UniProt P42336, M1043I); conditions: read-out: Percent Control at 100 nM Compound Concentration
Chain of PIK3CA(M10431) (P42336 whole entry M1043I): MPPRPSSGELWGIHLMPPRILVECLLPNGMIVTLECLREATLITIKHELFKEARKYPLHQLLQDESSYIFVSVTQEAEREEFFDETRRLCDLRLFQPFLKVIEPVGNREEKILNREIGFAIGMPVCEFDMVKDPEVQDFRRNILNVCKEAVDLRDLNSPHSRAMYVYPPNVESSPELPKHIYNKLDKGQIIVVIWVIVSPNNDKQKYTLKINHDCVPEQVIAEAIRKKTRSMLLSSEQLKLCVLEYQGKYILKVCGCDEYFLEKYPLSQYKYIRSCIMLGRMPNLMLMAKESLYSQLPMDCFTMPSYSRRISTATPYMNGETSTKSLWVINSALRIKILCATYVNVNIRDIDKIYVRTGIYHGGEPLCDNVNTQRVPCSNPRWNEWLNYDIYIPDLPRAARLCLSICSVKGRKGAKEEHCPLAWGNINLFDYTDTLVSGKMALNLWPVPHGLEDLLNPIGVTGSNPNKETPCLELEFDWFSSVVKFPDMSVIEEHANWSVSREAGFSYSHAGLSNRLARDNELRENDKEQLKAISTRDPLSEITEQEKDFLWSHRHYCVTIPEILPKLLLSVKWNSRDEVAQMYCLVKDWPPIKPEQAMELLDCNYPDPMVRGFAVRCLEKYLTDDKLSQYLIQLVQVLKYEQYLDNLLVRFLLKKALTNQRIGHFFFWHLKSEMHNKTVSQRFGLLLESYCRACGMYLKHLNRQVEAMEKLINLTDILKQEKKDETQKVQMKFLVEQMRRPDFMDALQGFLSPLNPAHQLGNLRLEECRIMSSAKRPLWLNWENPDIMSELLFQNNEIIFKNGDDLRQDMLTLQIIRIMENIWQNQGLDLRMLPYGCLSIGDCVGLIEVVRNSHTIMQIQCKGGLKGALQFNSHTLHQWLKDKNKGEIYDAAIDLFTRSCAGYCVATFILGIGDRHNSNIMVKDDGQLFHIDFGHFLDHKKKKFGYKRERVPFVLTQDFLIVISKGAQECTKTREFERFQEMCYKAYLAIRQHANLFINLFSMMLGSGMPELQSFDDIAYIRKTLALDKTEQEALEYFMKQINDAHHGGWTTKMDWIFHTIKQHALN

[4] = biological target: EGFR(E746-A750del) (Homo sapiens (Human), UniProt P00533, DEL746-750); conditions: read-out: Percent Control at 100 nM Compound Concentration
[5] = biological target: SLK (Homo sapiens (Human), UniProt Q9H2G2); conditions: read-out: Percent Control at 100 nM Compound Concentration
[6] = biological target: PIM3 (Homo sapiens (Human), UniProt Q86V86); conditions: read-out: Percent Control at 100 nM Compound Concentration
[7] = biological target: ABL1(Q252H)-nonphosphorylated (Homo sapiens (Human), UniProt P00519, Q252H); conditions: read-out: Percent Control at 100 nM Compound Concentration
[8] = biological target: EGFR(G719S) (Homo sapiens (Human), UniProt P00533, G719S); conditions: read-out: Percent Control at 100 nM Compound Concentration
[9] = biological target: MY03B (Homo sapiens (Human), UniProt Q8WXR4); conditions: read-out: Percent Control at 100 nM Compound Concentration
[10] = biological target: MTOR (Homo sapiens (Human), UniProt P42345); conditions: read-out: Percent Control at 100 nM Compound Concentration
[11] = biological target: CHEK2 (Homo sapiens (Human), UniProt O96017); conditions: read-out: Percent Control at 100 nM Compound Concentration
Chain of CHEK2 (O96017 whole entry): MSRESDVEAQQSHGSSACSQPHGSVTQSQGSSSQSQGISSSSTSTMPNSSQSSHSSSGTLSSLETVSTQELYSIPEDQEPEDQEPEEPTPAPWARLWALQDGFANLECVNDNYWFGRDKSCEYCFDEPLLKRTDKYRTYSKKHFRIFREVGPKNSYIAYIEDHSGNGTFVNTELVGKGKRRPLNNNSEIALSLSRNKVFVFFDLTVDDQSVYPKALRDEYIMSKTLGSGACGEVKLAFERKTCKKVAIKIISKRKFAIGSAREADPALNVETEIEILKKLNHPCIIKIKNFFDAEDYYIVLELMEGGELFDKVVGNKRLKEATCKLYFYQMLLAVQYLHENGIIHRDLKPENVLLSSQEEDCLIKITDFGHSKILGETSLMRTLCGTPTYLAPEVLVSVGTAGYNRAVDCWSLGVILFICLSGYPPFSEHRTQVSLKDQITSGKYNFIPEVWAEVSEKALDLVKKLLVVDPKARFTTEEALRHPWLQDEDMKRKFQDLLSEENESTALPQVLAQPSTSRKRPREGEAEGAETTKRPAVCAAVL

[12] = biological target: MAK (Homo sapiens (Human), UniProt P20794); conditions: read-out: Percent Control at 100 nM Compound Concentration
[13] = biological target: JNK3 (Homo sapiens (Human), UniProt P53779); conditions: read-out: Percent Control at 100 nM Compound Concentration
[14] = biological target: EPHB1 (Homo sapiens (Human), UniProt P54762); conditions: read-out: Percent Control at 100 nM Compound Concentration
[15] = biological target: HPK1 (Homo sapiens (Human), UniProt Q92918); conditions: read-out: Percent Control at 100 nM Compound Concentration
[16] = biological target: ROS1 (Homo sapiens (Human), UniProt P08922); conditions: read-out: Percent Control at 100 nM Compound Concentration
[17] = biological target: ERBB4 (Homo sapiens (Human), UniProt Q15303); conditions: read-out: Percent Control at 100 nM Compound Concentration
[18] = biological target: PAK2 (Homo sapiens (Human), UniProt Q13177); conditions: read-out: Percent Control at 100 nM Compound Concentration
Chain of PAK2 (Q13177 whole entry): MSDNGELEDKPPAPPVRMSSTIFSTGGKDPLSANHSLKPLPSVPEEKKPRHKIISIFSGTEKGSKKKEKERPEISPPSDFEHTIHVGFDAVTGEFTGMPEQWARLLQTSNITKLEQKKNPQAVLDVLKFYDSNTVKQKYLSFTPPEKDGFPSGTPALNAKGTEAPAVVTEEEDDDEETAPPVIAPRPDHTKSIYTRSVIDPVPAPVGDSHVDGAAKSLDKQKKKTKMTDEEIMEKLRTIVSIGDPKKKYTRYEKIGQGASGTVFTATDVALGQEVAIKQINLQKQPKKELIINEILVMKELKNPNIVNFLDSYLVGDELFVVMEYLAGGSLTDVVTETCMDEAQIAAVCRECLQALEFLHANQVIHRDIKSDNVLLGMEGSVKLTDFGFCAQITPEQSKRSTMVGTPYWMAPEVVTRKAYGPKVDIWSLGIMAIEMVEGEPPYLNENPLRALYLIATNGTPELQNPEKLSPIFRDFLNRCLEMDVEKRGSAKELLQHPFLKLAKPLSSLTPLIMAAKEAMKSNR

[19] = biological target: MEK3 (Homo sapiens (Human), UniProt P46734); conditions: read-out: Percent Control at 100 nM Compound Concentration
[20] = tested on: FLT3(ITD,D835V); set-up: species or system human
[21] = biological target: PFTAIRE2 (Homo sapiens (Human), UniProt Q96Q40); conditions: read-out: Percent Control at 100 nM Compound Concentration
Chain of PFTAIRE2 (Q96Q40 whole entry): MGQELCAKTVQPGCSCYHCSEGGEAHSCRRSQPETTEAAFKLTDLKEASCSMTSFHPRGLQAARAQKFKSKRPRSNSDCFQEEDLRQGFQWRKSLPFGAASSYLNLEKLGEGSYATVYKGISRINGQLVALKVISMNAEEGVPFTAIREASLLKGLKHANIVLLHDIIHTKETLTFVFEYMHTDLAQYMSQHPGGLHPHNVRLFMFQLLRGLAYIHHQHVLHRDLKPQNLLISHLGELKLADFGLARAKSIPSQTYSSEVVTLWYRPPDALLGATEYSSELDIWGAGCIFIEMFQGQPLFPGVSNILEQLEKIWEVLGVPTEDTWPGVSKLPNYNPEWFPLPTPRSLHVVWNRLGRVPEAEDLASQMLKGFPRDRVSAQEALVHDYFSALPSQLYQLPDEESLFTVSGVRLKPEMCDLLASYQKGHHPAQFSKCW

[22] = biological target: IKK-beta (Homo sapiens (Human), UniProt O14920); conditions: read-out: Percent Control at 100 nM Compound Concentration
[23] = biological target: FRK (Homo sapiens (Human), UniProt P42685); conditions: read-out: Percent Control at 100 nM Compound Concentration
[24] = biological target: ERK3 (Homo sapiens (Human), UniProt Q16659); conditions: read-out: Percent Control at 100 nM Compound Concentration
[25] = biological target: NLK (Homo sapiens (Human), UniProt Q9UBE8); conditions: read-out: Percent Control at 100 nM Compound Concentration
Chain of NLK (Q9UBE8 whole entry): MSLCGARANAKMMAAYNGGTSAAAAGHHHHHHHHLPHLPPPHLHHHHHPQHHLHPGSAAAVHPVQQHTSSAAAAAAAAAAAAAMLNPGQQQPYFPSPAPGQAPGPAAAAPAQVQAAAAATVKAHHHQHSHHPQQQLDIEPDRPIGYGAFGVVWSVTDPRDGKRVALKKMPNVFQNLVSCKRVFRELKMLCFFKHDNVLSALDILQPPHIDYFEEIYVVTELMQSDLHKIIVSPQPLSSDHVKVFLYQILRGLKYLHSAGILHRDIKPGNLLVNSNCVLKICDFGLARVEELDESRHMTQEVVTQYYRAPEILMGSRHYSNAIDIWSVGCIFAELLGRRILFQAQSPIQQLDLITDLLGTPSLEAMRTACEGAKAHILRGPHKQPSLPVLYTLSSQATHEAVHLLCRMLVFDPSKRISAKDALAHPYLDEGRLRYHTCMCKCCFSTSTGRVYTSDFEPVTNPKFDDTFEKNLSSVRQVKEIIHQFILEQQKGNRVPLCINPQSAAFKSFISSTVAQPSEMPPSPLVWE

[26] = biological target: PIK3CA(C420R) (Homo sapiens (Human), UniProt P42336, C420R); conditions: read-out: Percent Control at 100 nM Compound Concentration
Chain of PIK3CA(C420R) (P42336 whole entry C420R): as the sequence (P42336 whole entry M1043I) above, with C420R, I1043M counted along it

[27] = biological target: TAOK3 (Homo sapiens (Human), UniProt Q9H2K8); conditions: read-out: Percent Control at 100 nM Compound Concentration
[28] = biological target: AURKC (Homo sapiens (Human), UniProt Q9UQB9); conditions: read-out: Percent Control at 100 nM Compound Concentration
Chain of AURKC (Q9UQB9 whole entry): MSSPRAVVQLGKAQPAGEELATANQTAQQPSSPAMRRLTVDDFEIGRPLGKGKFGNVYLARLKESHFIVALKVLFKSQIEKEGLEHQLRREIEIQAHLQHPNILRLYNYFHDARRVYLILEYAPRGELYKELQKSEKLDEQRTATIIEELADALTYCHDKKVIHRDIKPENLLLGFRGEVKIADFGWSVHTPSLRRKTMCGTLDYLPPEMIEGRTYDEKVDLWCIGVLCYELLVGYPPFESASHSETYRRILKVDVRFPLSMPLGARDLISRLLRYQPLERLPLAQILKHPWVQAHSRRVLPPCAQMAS

[29] = biological target: PAK1 (Homo sapiens (Human), UniProt Q13153); conditions: read-out: Percent Control at 100 nM Compound Concentration
Chain of PAK1 (Q13153 whole entry): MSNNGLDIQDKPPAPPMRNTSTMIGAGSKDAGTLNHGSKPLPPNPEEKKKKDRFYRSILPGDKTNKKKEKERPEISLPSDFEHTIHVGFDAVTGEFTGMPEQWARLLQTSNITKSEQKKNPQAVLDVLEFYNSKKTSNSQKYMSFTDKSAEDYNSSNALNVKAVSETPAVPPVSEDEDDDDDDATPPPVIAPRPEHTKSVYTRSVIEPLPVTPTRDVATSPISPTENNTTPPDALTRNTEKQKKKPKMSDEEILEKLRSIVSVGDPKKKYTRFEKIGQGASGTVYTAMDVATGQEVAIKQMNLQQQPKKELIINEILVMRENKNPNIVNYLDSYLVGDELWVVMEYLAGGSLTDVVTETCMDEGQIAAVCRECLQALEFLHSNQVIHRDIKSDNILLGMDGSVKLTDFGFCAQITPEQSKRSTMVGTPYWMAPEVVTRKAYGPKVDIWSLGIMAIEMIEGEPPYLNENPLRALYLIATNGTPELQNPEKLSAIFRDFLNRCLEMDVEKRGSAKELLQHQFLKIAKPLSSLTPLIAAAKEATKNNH

Chain of NEK2 (P51955 whole entry): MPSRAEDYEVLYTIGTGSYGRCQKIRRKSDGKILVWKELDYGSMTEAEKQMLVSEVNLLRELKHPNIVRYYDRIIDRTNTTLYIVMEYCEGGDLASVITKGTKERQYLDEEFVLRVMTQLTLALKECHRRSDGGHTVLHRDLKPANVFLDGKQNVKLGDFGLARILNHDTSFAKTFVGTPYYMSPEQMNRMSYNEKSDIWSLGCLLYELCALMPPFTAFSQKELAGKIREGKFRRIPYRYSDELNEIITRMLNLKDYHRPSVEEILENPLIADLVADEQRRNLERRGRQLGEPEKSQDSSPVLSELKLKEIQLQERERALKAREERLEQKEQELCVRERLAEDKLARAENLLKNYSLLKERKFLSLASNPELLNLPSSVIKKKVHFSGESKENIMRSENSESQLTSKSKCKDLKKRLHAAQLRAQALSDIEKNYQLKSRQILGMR

Question: For CN(C[C@H](Cc1ccccc1)OP(=O)(O)O)C(=O)c1cncc(C#Cc2cnn(C(F)F)c2)c1 [Example 19, (S)-1-(5-((1-(difluoromethyl)-1H-pyrazol-4-yl)ethynyl)-N-methylnicotinamido)-3-phenylpropan-2-yl dihydrogen phosphate], which remaining activity at 0.1 µM [1] is on record?
Answer: Its remaining activity at 0.1 µM is 100%.

Question: And the remaining activity at 0.1 µM [2]?
Answer: The remaining activity at 0.1 µM was 99%.

Question: And the remaining activity at 0.1 µM [3]?
Answer: Its remaining activity at 0.1 µM is 85%.

Question: What about the remaining activity at 0.1 µM [4] of the same compound?
Answer: The remaining activity at 0.1 µM was 94%.

Question: And the remaining activity at 0.1 µM [5]?
Answer: The remaining activity at 0.1 µM was 97%.

Question: What about the remaining activity at 0.1 µM [6] of the same compound?
Answer: Its remaining activity at 0.1 µM is 100%.

Question: What about the remaining activity at 0.1 µM [7] of the same compound?
Answer: Its remaining activity at 0.1 µM is 100%.

Question: What about the remaining activity at 0.1 µM [8] of the same compound?
Answer: Its remaining activity at 0.1 µM is 72%.

Question: And the remaining activity at 0.1 µM [9]?
Answer: The remaining activity at 0.1 µM was 79%.

Question: And the remaining activity at 0.1 µM [10]?
Answer: The remaining activity at 0.1 µM was 67%.

Question: What about the remaining activity at 0.1 µM [11] of the same compound?
Answer: The remaining activity at 0.1 µM was 100%.

Question: What about the remaining activity at 0.1 µM [12] of the same compound?
Answer: Its remaining activity at 0.1 µM is 100%.

Question: And the remaining activity at 0.1 µM [13]?
Answer: Its remaining activity at 0.1 µM is 86%.

Question: What about the remaining activity at 0.1 µM [14] of the same compound?
Answer: Its remaining activity at 0.1 µM is 100%.

Question: And the remaining activity at 0.1 µM [15]?
Answer: The remaining activity at 0.1 µM was 92%.

Question: And the remaining activity at 0.1 µM [16]?
Answer: The remaining activity at 0.1 µM was 91%.

Question: What about the remaining activity at 0.1 µM [17] of the same compound?
Answer: Its remaining activity at 0.1 µM is 93%.

Question: And the remaining activity at 0.1 µM [18]?
Answer: Its remaining activity at 0.1 µM is 92%.

Question: And the remaining activity at 0.1 µM [19]?
Answer: Its remaining activity at 0.1 µM is 79%.

Question: And the “Percent Control at 100 nM Compound Concentration” value [20]?
Answer: Its value is 100%.

Question: And the remaining activity at 0.1 µM [21]?
Answer: The remaining activity at 0.1 µM was 100%.

Question: What about the remaining activity at 0.1 µM [22] of the same compound?
Answer: The remaining activity at 0.1 µM was 96%.

Question: What about the remaining activity at 0.1 µM [23] of the same compound?
Answer: The remaining activity at 0.1 µM was 100%.

Question: And the remaining activity at 0.1 µM [24]?
Answer: The remaining activity at 0.1 µM was 100%.

Question: What about the remaining activity at 0.1 µM [25] of the same compound?
Answer: Its remaining activity at 0.1 µM is 100%.

Question: And the remaining activity at 0.1 µM [26]?
Answer: The remaining activity at 0.1 µM was 86%.

Question: What about the remaining activity at 0.1 µM [27] of the same compound?
Answer: The remaining activity at 0.1 µM was 85%.

Question: What about the remaining activity at 0.1 µM [28] of the same compound?
Answer: Its remaining activity at 0.1 µM is 100%.

Question: And the remaining activity at 0.1 µM [29]?
Answer: Its remaining activity at 0.1 µM is 100%.

Question: CN(C[C@@H](O)Cc1ccccc1)C(=O)c1cncc(C#Cc2cnn(C(F)F)c2)c1 [Example 2, (S)-5-((1-(difluoromethyl)-1H-pyrazol-4-yl)ethynyl)-N-(2-hydroxy-3-phenylpropyl)-N-methylnicotinamide] was tested. Which remaining activity at 0.1 µM ([1]; NEK2) did it give?
Answer: The remaining activity at 0.1 µM was 100%.

Question: And the remaining activity at 0.1 µM ([2]; FGR)?
Answer: The remaining activity at 0.1 µM was 100%.

Question: And the remaining activity at 0.1 µM ([3]; PIK3CA(M10431))?
Answer: The remaining activity at 0.1 µM was 92%.

Question: What about the remaining activity at 0.1 µM ([4]; EGFR(E746-A750del)) of the same compound?
Answer: Its remaining activity at 0.1 µM is 100%.

Question: What about the remaining activity at 0.1 µM ([5]; SLK) of the same compound?
Answer: The remaining activity at 0.1 µM was 99%.

Question: What about the remaining activity at 0.1 µM ([6]; PIM3) of the same compound?
Answer: Its remaining activity at 0.1 µM is 100%.

Question: And the remaining activity at 0.1 µM ([7]; ABL1(Q252H)-nonphosphorylated)?
Answer: The remaining activity at 0.1 µM was 92%.

Question: And the remaining activity at 0.1 µM ([8]; EGFR(G719S))?
Answer: Its remaining activity at 0.1 µM is 100%.

Question: And the remaining activity at 0.1 µM ([9]; MY03B)?
Answer: The remaining activity at 0.1 µM was 95%.

Question: And the remaining activity at 0.1 µM ([10]; MTOR)?
Answer: The remaining activity at 0.1 µM was 73%.

Question: What about the remaining activity at 0.1 µM ([11]; CHEK2) of the same compound?
Answer: Its remaining activity at 0.1 µM is 100%.

Question: And the remaining activity at 0.1 µM ([12]; MAK)?
Answer: Its remaining activity at 0.1 µM is 100%.

Question: And the remaining activity at 0.1 µM ([13]; JNK3)?
Answer: The remaining activity at 0.1 µM was 83%.

Question: And the remaining activity at 0.1 µM ([14]; EPHB1)?
Answer: The remaining activity at 0.1 µM was 100%.

Question: What about the remaining activity at 0.1 µM ([15]; HPK1) of the same compound?
Answer: The remaining activity at 0.1 µM was 78%.

Question: And the remaining activity at 0.1 µM ([16]; ROS1)?
Answer: The remaining activity at 0.1 µM was 100%.

Question: What about the remaining activity at 0.1 µM ([17]; ERBB4) of the same compound?
Answer: Its remaining activity at 0.1 µM is 94%.

Question: What about the remaining activity at 0.1 µM ([18]; PAK2) of the same compound?
Answer: The remaining activity at 0.1 µM was 97%.

Question: And the remaining activity at 0.1 µM ([19]; MEK3)?
Answer: Its remaining activity at 0.1 µM is 94%.

Question: What about the “Percent Control at 100 nM Compound Concentration” value [20] of the same compound?
Answer: The value was 100%.

Question: What about the remaining activity at 0.1 µM ([21]; PFTAIRE2) of the same compound?
Answer: Its remaining activity at 0.1 µM is 100%.

Question: And the remaining activity at 0.1 µM ([22]; IKK-beta)?
Answer: Its remaining activity at 0.1 µM is 96%.

Question: And the remaining activity at 0.1 µM ([23]; FRK)?
Answer: Its remaining activity at 0.1 µM is 100%.

Question: And the remaining activity at 0.1 µM ([24]; ERK3)?
Answer: The remaining activity at 0.1 µM was 100%.

Question: And the remaining activity at 0.1 µM ([25]; NLK)?
Answer: Its remaining activity at 0.1 µM is 100%.

Question: What about the remaining activity at 0.1 µM ([26]; PIK3CA(C420R)) of the same compound?
Answer: Its remaining activity at 0.1 µM is 83%.

Question: And the remaining activity at 0.1 µM ([27]; TAOK3)?
Answer: Its remaining activity at 0.1 µM is 92%.

Question: And the remaining activity at 0.1 µM ([28]; AURKC)?
Answer: The remaining activity at 0.1 µM was 100%.

Question: And the remaining activity at 0.1 µM ([29]; PAK1)?
Answer: Its remaining activity at 0.1 µM is 100%.
